The experiment concerns the target T1, Corynascus thermophilus cellobiose dehydrogenase (CDH), recombinant wild type, SEQ ID NO: 7 (Thermothelomyces fergusii, UniProt E7D6B9).
T1 sequence (E7D6B9 24-787): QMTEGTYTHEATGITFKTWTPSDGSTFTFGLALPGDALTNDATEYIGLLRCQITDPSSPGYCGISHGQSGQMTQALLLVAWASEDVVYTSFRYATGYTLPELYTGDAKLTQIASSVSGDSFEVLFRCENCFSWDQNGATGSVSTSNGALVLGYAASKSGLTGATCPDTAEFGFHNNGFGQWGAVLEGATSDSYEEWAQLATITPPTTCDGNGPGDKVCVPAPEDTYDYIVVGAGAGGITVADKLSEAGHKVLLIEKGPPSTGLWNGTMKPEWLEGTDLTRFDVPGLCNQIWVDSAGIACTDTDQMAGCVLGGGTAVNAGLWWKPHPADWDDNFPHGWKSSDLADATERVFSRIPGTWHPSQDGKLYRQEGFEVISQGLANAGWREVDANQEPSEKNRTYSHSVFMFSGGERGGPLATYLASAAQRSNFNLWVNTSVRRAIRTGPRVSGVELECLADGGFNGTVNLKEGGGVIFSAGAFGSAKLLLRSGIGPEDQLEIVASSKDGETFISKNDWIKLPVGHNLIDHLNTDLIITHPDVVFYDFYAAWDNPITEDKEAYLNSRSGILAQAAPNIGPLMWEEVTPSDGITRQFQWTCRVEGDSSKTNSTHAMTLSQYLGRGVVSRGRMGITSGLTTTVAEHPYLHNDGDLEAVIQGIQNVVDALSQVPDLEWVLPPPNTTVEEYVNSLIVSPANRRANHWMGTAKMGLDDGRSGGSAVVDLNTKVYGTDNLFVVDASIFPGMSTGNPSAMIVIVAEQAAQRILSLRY
The experiment is described as follows: Steady-state kinetics, DCIP assay: C. thermophilus CDH wt. The note with it: apparent, pH 5.5, 30° C. As for the experimental part: Enzyme activity was assayed at 30° C. using either the DCIP (Karapetyan et al., 2005 Journal of Biotechnology 121: 34-48) or cytochrome c (Canevascini et al., 1991, European Journal of Biochemistry 198: 43-52) as electron acceptor. […] Stock solutions of carbohydrates used for kinetic measurements were prepared in the respective buffer and allowed to stand overnight for mutarotation, while stock solutions of electron acceptors were prepared in water and immediately used. The reaction stoichiometry is 1 for the two-electron acceptor DCIP (1 mole of DCIP reduced per mole of carbohydrate oxidized), but 2 for the one-electron acceptor cytochrome c. Kinetic constants were calculated by fitting the observed data to the Henri-Michaelis-Menten equation or to the adapted model for substrate inhibition using nonlinear least-squares regression and the program SigmaPlot (Systat Software, San Jose, Calif., USA). […]
Recombinant wild-type CDH as well as variants were produced in 1 L baffled flasks. […] Increase in activity was monitored using the DCIP and the cytochrome c enzyme assays. […]
The sample was loaded on a 20 mL PHE Sepharose FF column (HR26/20) equilibrated with 50 mM Na-acetate buffer pH 5.5 containing 20% ammonium sulfate. […] Fractions were tested for CDH activity and pooled according to the highest Reinheitszahl (RZ, calculated from the absorbance ratio 420 nm/280 nm). […]

The record followed here is US10184115B2, “Mutated cellobiose dehydrogenase with increased substrate specificity” (DIRECTSENS GMBH, priority 2012, dated 2019).

What is called kcat is the maximal rate divided by the concentration of active sites. What is called kcat/KM is the turnover number divided by the Michaelis constant.

For `OC[C@H]1OC(O)[C@H](O)[C@@H](O)[C@@H]1O` (some centres unmarked) [Glucose, glucose], the catalytic constant (kcat) was found to be 4.09 s⁻¹ and the specificity constant (kcat/KM) stood at 170 M⁻¹ s⁻¹.
